# Patent publication US9822074B2, “Dihydropyridinone MGAT2 inhibitors” (BRISTOL-MYERS SQUIBB COMPANY, priority 2013, dated 2017)
# Molecular target: human MGAT2 (Homo sapiens (Human), UniProt Q3SYC2)
# Test: MGAT LCMS Assay (MGAT2 in vitro enzyme assay)
# Type: biochemical
# Details: Human MGAT-2 membranes expressed in Sf9 cells; 100 μM 2-oleoylglycerol, 15 μM oleoyl-Coenzyme A; read-out: h-MGAT LCMS IC50
# Experimental: The MGAT enzyme reactions were performed in Corning FALCON® 96-well Polypropylene plates, in a total volume of 60 μL of 50 mM Potassium Phosphate buffer pH 7.4, containing a final concentration of 100 μM 2-oleoylglycerol, 15 μM oleoyl-Coenzyme A and 0.0013 μg/μL Human or Mouse MGAT-2 or 0.0026 μg/μL Rat recombinant MGAT-2 membranes expressed in Sf9 cells. Assay plates were run through a fully automated robotics system and shaken for 5 seconds every minute for a total 10 minutes. The reactions were then quenched with 120 μL of ice cold methanol containing 1 μg/mL 1,2-distearoyl-rac-glycerol as the internal standard. Plates were shaken for 2 minutes and spun down to remove protein precipitation. After the spin, samples were transferred to LC/MS compatible PCR plates. For LC/MS analysis, a ThermoFisher Surveyor pump, utilizing a Waters Symmetry C8, 50×2.1 mm column, was used for the chromatography of enzyme products. The buffer system consists of 0.1% formic acid in water with a mobile phase consisting 0.1% formic acid in methanol. The shallow gradient is 90-100% mobile phase in 0.2 min with a total run time of 2.3 min. The first 0.5 minutes of each injection was diverted to waste to eliminate the presence of Phosphate buffer in the enzymatic reaction. The column was run at 0.6 mL/min and a temperature of 65° C. […]
# Chain of human MGAT2 (Q3SYC2 whole entry): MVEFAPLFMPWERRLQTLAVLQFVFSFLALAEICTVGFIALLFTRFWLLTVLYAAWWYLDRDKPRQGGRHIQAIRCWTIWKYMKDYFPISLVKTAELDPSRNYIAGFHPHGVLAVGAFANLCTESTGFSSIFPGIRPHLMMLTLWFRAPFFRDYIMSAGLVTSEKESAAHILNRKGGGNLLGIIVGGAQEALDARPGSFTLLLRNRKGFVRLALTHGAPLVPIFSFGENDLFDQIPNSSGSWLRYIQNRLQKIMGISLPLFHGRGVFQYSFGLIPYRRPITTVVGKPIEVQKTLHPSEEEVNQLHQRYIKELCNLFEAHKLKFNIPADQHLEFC
row,IC50 [nM],Structure (SMILES)
1,35,"CC(C)n1ccc(C2=C(C(=O)NS(=O)(=O)C3CC3)C(=O)N[C@@](c3ccc(CCCCC(F)(F)F)cc3F)(C(F)(F)F)C2)n1 [Example 49, (S)-N-(cyclopropylsulfonyl)-6-(2-fluoro-4-(5,5,5-trifluoropentyl)phenyl)-4-(1-isopropyl-1H-pyrazol-3-yl)-2-oxo-6-(trifluoromethyl)-1,2,5,6-tetrahydropyridine-3-carboxamide]"
2,16,"O=C1N[C@@](c2ccc(CCCCC(F)(F)F)cc2F)(C(F)(F)F)CC(c2ccn(C3CCC3)n2)=C1C(=O)NS(=O)(=O)C1CC1 [Example 50, (S)-4-(1-cyclobutyl-1H-pyrazol-3-yl)-N-(cyclopropylsulfonyl)-6-(2-fluoro-4-(5,5,5-trifluoropentyl)phenyl)-2-oxo-6-(trifluoromethyl)-1,2,5,6-tetrahydropyridine-3-carboxamide]"
